From ChEMBL document CHEMBL5465560, “Selectivity Literature for EUbOPEN Chemogenomic Library” (2024)
Each block holds one compound with its values, some of them ahead of it.

Legend:
[1] = biological target: Sodium-dependent serotonin transporter (Homo sapiens, UniProt P31645); assay: Selectivity interaction (Eurofins CEREP Diversity Profile (receptors and ion channels)) EUB0000279b SLC6A4; details: at 10 µM
Insulin receptor = Insulin receptor (Homo sapiens, UniProt P06213); assay: Selectivity interaction (KinomeScan (DiscoverX)) EUB0000666a INSR; details: at 10 µM
Sequence of Insulin receptor (P06213 28-758 limits assumed): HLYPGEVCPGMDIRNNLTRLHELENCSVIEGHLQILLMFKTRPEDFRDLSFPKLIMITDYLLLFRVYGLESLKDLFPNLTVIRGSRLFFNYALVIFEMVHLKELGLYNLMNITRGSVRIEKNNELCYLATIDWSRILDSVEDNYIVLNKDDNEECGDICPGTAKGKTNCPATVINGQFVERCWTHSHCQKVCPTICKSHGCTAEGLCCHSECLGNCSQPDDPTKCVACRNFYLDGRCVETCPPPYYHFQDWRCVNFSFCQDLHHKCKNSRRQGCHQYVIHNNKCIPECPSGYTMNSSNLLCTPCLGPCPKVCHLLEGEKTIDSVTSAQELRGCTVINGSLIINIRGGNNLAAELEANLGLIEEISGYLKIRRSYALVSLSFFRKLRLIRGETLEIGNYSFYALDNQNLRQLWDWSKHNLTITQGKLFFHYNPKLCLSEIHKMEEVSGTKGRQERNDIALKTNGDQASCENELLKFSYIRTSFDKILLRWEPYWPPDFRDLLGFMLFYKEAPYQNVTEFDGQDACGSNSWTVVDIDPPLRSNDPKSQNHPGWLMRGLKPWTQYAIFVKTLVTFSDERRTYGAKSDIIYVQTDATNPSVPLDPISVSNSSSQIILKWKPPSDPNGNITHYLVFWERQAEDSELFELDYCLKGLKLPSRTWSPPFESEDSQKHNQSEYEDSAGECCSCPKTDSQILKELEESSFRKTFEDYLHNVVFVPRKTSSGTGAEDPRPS
Sequence of Insulin receptor (P06213 763-1382 limits assumed): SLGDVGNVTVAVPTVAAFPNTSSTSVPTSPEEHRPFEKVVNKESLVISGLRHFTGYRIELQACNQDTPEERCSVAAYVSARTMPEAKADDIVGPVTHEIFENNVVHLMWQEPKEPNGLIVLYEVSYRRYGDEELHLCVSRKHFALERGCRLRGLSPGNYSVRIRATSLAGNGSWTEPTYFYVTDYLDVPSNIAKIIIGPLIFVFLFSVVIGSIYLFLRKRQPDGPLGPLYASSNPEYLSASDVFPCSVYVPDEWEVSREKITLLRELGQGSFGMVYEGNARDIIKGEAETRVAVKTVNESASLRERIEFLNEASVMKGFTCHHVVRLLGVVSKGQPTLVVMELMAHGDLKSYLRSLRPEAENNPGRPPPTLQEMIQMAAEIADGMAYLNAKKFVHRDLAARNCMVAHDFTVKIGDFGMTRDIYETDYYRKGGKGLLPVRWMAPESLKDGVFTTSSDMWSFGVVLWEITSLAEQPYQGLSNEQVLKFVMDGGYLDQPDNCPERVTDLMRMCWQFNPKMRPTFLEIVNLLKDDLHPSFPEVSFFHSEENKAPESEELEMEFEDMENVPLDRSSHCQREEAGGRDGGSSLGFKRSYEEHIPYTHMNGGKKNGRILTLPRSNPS

[2] = biological target: Cyclin-dependent kinase 8 (Homo sapiens, UniProt P49336); assay: Selectivity interaction (KinomeScan (DiscoverX)) EUB0000607a CDK8; details: at 10 µM
[3] = biological target: Ribosomal protein S6 kinase alpha-3 (Homo sapiens, UniProt P51812); assay: Selectivity interaction (ActivX KiNativ screen (kinase selectivity in THP-1 cell lysates)) EUB0000639a RPS6KA3; type: subcellular; details: lysate, at 0.2 µM
Sequence of Ribosomal protein S6 kinase alpha-3 (P51812 whole entry): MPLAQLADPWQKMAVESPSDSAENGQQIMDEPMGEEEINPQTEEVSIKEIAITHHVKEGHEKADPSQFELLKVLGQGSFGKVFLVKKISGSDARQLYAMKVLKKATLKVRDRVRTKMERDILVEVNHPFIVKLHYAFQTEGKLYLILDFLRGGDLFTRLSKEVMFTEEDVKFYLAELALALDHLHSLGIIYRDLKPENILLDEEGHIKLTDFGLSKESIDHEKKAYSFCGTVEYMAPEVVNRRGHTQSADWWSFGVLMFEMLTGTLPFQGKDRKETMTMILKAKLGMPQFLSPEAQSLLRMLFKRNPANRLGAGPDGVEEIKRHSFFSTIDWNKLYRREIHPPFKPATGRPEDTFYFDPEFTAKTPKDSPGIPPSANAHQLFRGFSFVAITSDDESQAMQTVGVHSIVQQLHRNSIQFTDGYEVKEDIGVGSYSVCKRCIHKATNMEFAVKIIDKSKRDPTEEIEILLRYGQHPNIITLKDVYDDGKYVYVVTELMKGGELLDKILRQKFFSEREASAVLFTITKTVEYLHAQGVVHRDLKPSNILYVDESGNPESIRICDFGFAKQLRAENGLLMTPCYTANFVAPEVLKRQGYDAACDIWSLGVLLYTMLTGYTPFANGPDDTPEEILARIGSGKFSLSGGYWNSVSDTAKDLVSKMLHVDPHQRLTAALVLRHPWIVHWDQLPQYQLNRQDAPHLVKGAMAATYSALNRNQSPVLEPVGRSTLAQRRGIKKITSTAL

[4] = biological target: T1, Ephrin type-B receptor 2 (Homo sapiens) (UniProt P29323); assay: Selectivity interaction (ProQinase) EUB0000171b EPHB2
T1 sequence (whole entry): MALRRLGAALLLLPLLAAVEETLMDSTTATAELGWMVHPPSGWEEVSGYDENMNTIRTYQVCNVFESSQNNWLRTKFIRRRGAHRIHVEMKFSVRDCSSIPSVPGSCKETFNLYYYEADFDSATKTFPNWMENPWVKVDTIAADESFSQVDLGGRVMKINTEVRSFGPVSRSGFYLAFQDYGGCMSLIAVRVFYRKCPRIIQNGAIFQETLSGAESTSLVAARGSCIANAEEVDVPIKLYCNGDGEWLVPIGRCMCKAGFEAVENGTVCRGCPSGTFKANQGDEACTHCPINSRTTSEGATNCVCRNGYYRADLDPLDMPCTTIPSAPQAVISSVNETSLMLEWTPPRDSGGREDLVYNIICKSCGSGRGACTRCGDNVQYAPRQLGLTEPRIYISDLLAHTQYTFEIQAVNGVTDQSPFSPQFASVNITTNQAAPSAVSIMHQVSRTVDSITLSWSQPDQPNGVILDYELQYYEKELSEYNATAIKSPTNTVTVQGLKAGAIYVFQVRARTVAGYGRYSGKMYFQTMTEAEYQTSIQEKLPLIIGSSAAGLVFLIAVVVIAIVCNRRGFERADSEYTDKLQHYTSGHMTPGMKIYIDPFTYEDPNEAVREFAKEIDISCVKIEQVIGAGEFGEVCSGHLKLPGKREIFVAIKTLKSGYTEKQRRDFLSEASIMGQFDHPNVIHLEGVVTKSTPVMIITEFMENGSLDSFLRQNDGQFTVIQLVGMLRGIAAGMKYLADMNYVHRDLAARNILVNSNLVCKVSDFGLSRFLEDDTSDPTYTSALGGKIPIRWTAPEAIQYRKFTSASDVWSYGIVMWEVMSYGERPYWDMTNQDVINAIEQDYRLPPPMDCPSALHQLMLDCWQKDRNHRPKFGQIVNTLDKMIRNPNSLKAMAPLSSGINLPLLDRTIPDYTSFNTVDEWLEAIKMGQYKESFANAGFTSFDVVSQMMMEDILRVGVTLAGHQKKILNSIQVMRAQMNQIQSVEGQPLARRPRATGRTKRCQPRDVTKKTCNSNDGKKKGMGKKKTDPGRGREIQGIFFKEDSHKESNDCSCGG

[5] = biological target: Serine/threonine-protein kinase PAK 6 (Homo sapiens) (UniProt Q9NQU5); assay: Selectivity interaction (ProQinase) EUB0000171b PAK6; details: at 5 µM
Sequence of Serine/threonine-protein kinase PAK 6 (Homo sapiens) (Q9NQU5 whole entry, looked up): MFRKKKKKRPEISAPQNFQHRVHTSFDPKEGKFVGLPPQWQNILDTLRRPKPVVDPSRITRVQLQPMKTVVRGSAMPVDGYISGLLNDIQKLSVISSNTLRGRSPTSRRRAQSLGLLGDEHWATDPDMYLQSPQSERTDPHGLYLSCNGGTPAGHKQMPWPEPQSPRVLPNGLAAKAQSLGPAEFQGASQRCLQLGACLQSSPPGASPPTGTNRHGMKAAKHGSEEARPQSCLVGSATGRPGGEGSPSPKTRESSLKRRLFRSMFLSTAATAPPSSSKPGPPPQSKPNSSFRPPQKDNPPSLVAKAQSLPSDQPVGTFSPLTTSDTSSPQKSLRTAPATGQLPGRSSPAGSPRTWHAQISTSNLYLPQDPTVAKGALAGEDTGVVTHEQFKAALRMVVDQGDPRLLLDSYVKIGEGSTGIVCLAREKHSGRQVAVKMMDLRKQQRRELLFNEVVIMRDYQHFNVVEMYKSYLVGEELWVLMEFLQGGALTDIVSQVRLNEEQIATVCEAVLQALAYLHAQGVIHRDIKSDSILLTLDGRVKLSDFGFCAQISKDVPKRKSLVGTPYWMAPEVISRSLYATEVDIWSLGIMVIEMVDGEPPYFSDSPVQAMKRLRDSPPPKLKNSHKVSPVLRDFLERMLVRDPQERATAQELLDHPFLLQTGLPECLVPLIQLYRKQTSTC

[6] = biological target: T2, Uncharacterized serine/threonine-protein kinase SBK3 (Homo sapiens) (UniProt P0C264); assay: Selectivity interaction (Ambit KINOMEscan and KiNATiv profiling in Jurkat cells) EUB0000090b SBK3; type: cell-based; details: at 1 µM
T2 sequence (whole entry): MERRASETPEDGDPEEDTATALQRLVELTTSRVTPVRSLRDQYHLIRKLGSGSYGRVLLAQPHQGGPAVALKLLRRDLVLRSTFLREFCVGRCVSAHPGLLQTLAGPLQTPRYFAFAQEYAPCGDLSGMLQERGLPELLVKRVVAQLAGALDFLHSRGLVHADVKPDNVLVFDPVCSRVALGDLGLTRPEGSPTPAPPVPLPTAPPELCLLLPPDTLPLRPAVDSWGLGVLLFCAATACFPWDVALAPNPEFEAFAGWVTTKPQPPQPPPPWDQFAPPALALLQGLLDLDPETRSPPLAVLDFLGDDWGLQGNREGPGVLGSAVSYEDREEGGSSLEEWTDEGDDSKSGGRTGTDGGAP

[7] = biological target: Mitogen-activated protein kinase kinase kinase 1 (Homo sapiens, UniProt Q13233); assay: Selectivity interaction (KinomeScan (DiscoverX)) EUB0000045b MAP3K1
Sequence of Mitogen-activated protein kinase kinase kinase 1 (Q13233 whole entry): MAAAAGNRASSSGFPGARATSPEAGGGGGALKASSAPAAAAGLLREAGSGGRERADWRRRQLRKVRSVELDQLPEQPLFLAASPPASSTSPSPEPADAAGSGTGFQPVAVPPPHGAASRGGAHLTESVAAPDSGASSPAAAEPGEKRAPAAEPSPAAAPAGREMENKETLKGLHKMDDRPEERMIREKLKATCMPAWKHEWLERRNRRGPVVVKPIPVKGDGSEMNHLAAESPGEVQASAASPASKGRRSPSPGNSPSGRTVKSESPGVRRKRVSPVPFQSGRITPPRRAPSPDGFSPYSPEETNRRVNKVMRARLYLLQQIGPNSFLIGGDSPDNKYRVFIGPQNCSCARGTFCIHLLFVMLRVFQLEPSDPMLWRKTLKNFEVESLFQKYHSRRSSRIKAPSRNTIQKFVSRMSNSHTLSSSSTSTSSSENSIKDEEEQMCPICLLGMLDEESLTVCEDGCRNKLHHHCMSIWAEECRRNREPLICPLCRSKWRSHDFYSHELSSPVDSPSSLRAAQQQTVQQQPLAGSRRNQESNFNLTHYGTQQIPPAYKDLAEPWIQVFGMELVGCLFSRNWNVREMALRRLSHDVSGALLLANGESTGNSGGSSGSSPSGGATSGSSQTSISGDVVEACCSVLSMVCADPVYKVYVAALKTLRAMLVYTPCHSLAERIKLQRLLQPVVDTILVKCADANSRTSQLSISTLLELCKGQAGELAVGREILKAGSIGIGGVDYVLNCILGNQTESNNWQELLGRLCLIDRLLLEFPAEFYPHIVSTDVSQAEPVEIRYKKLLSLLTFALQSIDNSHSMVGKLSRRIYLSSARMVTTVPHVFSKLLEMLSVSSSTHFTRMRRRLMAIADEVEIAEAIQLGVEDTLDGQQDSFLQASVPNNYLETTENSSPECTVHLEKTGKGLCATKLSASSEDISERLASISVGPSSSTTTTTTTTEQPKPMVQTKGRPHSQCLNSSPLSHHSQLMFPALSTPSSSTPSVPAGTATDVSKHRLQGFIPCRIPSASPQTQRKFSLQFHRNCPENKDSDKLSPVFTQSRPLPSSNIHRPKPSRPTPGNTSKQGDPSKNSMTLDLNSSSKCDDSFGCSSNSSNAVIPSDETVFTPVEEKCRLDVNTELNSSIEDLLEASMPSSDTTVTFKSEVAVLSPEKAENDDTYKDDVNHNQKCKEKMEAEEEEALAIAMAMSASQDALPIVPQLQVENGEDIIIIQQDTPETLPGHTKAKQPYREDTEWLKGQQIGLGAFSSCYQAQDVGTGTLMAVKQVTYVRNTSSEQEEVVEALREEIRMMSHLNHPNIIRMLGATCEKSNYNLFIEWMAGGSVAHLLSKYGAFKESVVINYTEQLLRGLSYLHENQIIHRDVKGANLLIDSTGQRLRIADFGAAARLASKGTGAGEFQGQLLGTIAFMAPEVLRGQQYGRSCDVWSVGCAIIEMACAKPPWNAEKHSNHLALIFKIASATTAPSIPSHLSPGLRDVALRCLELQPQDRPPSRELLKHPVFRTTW

[8] = biological target: T3, Muscarinic acetylcholine receptor M1 (Homo sapiens) (UniProt P11229); assay: Selectivity interaction (GPCR panel (PDSP screen)) EUB0001079a CHRM1; details: at 10 µM
T3 sequence (whole entry): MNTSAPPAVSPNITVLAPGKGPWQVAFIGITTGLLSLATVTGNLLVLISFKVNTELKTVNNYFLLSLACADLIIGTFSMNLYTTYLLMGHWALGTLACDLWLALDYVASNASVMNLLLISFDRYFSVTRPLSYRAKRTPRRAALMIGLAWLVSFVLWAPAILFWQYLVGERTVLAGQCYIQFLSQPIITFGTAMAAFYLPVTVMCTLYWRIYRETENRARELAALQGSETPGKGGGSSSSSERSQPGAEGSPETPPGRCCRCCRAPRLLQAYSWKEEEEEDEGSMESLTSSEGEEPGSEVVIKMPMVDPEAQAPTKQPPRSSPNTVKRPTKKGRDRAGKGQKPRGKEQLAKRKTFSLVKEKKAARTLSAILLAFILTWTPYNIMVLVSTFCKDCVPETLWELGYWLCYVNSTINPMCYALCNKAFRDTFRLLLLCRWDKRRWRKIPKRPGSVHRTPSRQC

[9] = biological target: Mitogen-activated protein kinase kinase kinase 9 (Homo sapiens) (UniProt P80192); details: at 10 µM

Sequence of Sodium-dependent serotonin transporter (P31645 whole entry, looked up): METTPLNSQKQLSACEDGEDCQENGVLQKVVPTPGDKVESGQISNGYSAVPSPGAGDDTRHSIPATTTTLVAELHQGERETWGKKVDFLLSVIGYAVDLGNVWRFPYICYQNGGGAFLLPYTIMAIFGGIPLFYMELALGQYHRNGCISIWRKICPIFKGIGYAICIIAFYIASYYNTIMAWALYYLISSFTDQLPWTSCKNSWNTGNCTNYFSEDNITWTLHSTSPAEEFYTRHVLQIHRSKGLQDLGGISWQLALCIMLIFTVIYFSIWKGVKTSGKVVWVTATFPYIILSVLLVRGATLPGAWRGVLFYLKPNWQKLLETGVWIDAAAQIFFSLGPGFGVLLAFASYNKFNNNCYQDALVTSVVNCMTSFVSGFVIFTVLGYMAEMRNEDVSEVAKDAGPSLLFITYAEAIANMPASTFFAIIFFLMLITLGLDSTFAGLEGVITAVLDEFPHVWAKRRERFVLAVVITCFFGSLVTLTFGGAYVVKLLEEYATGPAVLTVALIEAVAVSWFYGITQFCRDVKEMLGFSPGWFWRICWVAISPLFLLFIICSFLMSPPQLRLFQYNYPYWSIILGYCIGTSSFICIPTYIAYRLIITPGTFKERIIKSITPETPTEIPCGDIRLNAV

% of control [1]: 108%
SMILES: CC(=O)c1cc(-c2ccccc2OCC2CC2)c2ncccn12

SMILES: O=C(NOC[C@H](O)CO)c1ccc(F)c(F)c1Nc1ccc(I)cc1F
% of control (Insulin receptor): 92%

SMILES: CNC(=O)Nc1ccc(-c2nc(N3CC4CCC(C3)O4)c3cnn(C4CCC5(CC4)OCCO5)c3n2)cc1
% of control [2]: 100%

% of inhibition [3]: 15.4%
SMILES: CC[C@@H]1[C@H](F)C(=O)N[C@@H]1COc1nccc2cc(C(N)=O)c(OC)cc12 [ZIMLOVISERTIB]

% of control ([4]; at 1 µM): 93%
% of control ([4]; at 5 µM): 78%
% of control [5]: 67%
SMILES: C=CC(=O)Nc1cccc(C(=O)Nc2ccc(Nc3cc(-c4[nH]c(SC)nc4C)ccn3)cc2)c1

SMILES: CN(C)C/C=C/C(=O)Nc1ccc(C(=O)N2CCCC(Nc3ncc(Cl)c(-c4c[nH]c5ccccc45)n3)C2)cc1 (configuration not stated)
% of control [6]: 82%

SMILES: C=CC(=O)Nc1cc(-n2c(=O)ccc3cnc4ccc(-c5ccc(NS(C)(=O)=O)cc5)cc4c32)ccc1C
% of control ([7]; at 1 µM): 100%
% of control ([7]; at 10 µM): 100%

SMILES: Nc1cnc(N2CCc3cc(S(=O)(=O)Nc4c(F)cc(Cl)cc4F)cc(N4CCCC4=O)c32)nc1 [TP-020n]
% of inhibition [8]: -9.48%

SMILES: Cc1cc([C@@H](C)Nc2ccccc2C(=O)O)c2nc(N3CCOCC3)cc(=O)n2c1 [AZD-6482]
% of control [9]: 91%
